Experimental data from ChEMBL document CHEMBL1201862, “PubChem BioAssay data set” (2004).
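These data come from cells grown in 96-well plates and exposed to compound for 48 hours at five concentrations. The concentration for 50% growth inhibition is given as GI50.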 Calls of active or inactive are those of the source. Rule as the data show it: active = GI50 up to about 1.1 µM and inactive = higher.

Key:
Test in all cases: NCI anticancer screen, dose series, 48 h
TK-10 = system: TK-10
U-251 = system: U-251
A498 = system: A498
UACC-62 = system: UACC-62
NCI-H23 = system: NCI-H23
T47D = system: T47D
MDA-MB-435 = system: MDA-MB-435
KM12 = system: KM12
MCF7 = system: MCF7
PC-3 = system: PC-3
NCI-H460 = system: NCI-H460
HOP-92 = system: HOP-92
UO-31 = system: UO-31
ACHN = system: ACHN
SF-539 = system: SF-539
HCC 2998 = system: HCC 2998
OVCAR-4 = system: OVCAR-4
CAKI-1 = system: CAKI-1
SNB-19 = system: SNB-19
SF-295 = system: SF-295
K562 = system: K562
MOLT-4 = system: MOLT-4
SK-OV-3 = system: SK-OV-3
SK-MEL-5 = system: SK-MEL-5
NCI-H226 = system: NCI-H226
SK-MEL-2 = system: SK-MEL-2
NCI/ADR-RES = system: NCI/ADR-RES
EKVX = system: EKVX
A549 = system: A549
MDA-MB-231 = system: MDA-MB-231
OVCAR-5 = system: OVCAR-5
786-0 = system: 786-0
BT-549 = system: BT-549
UACC-257 = system: UACC-257
SW-620 = system: SW-620
DU-145 = system: DU-145
CCRF-CEM = system: CCRF-CEM
SF-268 = system: SF-268
HCT-116 = system: HCT-116
RPMI-8226 = system: RPMI-8226
HCT-15 = system: HCT-15
M14 = system: M14
LOX IMVI = system: LOX IMVI
COLO 205 = system: COLO 205
SK-MEL-28 = system: SK-MEL-28
HOP-62 = system: HOP-62
OVCAR-8 = system: OVCAR-8
IGROV-1 = system: IGROV-1
SNB-75 = system: SNB-75
MDA-N = system: MDA-N
SR = system: SR
NCI-H522 = system: NCI-H522
SN12C = system: SN12C
HL-60 = system: HL-60
Hs-578T = system: Hs-578T
HT-29 = system: HT-29
OVCAR-3 = system: OVCAR-3
RXF 393 = system: RXF 393
Malme-3M = system: Malme-3M

In the case of `CCC1OC2C(CC=C(C)C)=C3OC(C)(O)C(C)(CC)C(=O)C3=C3OC(=O)C=C1C32` (configuration not stated), the GI50 (TK-10) is reported as 46.5 µM (inactive), the GI50 (U-251) is reported as 36 µM (inactive) and the GI50 (A498) is reported as 23.6 µM (inactive). For the same compound, the GI50 (UACC-62) was 20.7 µM (inactive), the GI50 (NCI-H23) was 28.4 µM (inactive) and the GI50 (T47D) was 66.2 µM (inactive). For the same compound, the GI50 (MDA-MB-435) was 31.4 µM (inactive), the GI50 (KM12) was 34.4 µM (inactive) and the GI50 (MCF7) was 27.9 µM (inactive). For the same compound, the GI50 (PC-3) was 38.8 µM (inactive), the GI50 (NCI-H460) was 17.4 µM (inactive) and the GI50 (HOP-92) was 21.7 µM (inactive). For the same compound, the GI50 (UO-31) was 15.3 µM (inactive), the GI50 (ACHN) was 26.3 µM (inactive) and the GI50 (SF-539) was 8.55 µM (inactive). The GI50 (HCC 2998) was 34.8 µM (inactive), the GI50 (OVCAR-4) was 29.5 µM (inactive) and the GI50 (CAKI-1) was 54.2 µM (inactive). For the same compound, the GI50 (SNB-19) was 27.4 µM (inactive), the GI50 (SF-295) was 47 µM (inactive) and the GI50 (K562) was 26 µM (inactive). The GI50 (MOLT-4) was 20.2 µM (inactive), the GI50 (SK-OV-3) was > 100 µM (inactive) and the GI50 (SK-MEL-5) was 16.5 µM (inactive). For the same compound, the GI50 (NCI-H226) was 25.9 µM (inactive), the GI50 (SK-MEL-2) was 17.3 µM (inactive) and the GI50 (NCI/ADR-RES) was 27.8 µM (inactive). For the same compound, the GI50 (EKVX) was 29.4 µM (inactive), the GI50 (A549) was 22.6 µM (inactive) and the GI50 (MDA-MB-231) was 15.5 µM (inactive). For the same compound, the GI50 (OVCAR-5) was 65.3 µM (inactive), the GI50 (786-0) was 25.4 µM (inactive) and the GI50 (BT-549) was 15.1 µM (inactive). The GI50 (UACC-257) was 26.8 µM (inactive), the GI50 (SW-620) was 27.5 µM (inactive) and the GI50 (DU-145) was 58.6 µM (inactive). The GI50 (CCRF-CEM) was 29.7 µM (inactive), the GI50 (SF-268) was 38.6 µM (inactive) and the GI50 (HCT-116) was 15.5 µM (inactive). For the same compound, the GI50 (RPMI-8226) was 19.2 µM (inactive), the GI50 (HCT-15) was 32.4 µM and the GI50 (M14) was 27.7 µM (inactive). For the same compound, the GI50 (LOX IMVI) was 12.3 µM (inactive), the GI50 (COLO 205) was 20.5 µM (inactive) and the GI50 (SK-MEL-28) was 27.6 µM (inactive).

For `CC(C)(C)OC(=O)N1Cc2cc(O)ccc2C[C@H]1C(=O)O`, the GI50 (TK-10) was > 100 µM (inactive), the GI50 (U-251) was > 100 µM (inactive) and the GI50 (HOP-62) was > 100 µM (inactive). The GI50 (OVCAR-8) was > 100 µM (inactive), the GI50 (A498) was > 100 µM (inactive) and the GI50 (UACC-62) was > 100 µM (inactive). The GI50 (NCI-H23) was > 100 µM (inactive), the GI50 (IGROV-1) was > 100 µM (inactive) and the GI50 (T47D) was > 100 µM (inactive). The GI50 (MDA-MB-435) was > 100 µM (inactive), the GI50 (KM12) was > 100 µM (inactive) and the GI50 (MCF7) was > 100 µM (inactive). For the same compound, the GI50 (PC-3) was > 100 µM (inactive), the GI50 (NCI-H460) was > 100 µM (inactive) and the GI50 (SNB-75) was > 100 µM (inactive). The GI50 (HOP-92) was > 100 µM (inactive), the GI50 (ACHN) was > 100 µM (inactive) and the GI50 (SF-539) was > 100 µM (inactive). For the same compound, the GI50 (HCC 2998) was > 100 µM (inactive), the GI50 (MDA-N) was > 100 µM (inactive) and the GI50 (OVCAR-4) was > 100 µM (inactive). For the same compound, the GI50 (SR) was > 100 µM (inactive), the GI50 (CAKI-1) was > 100 µM (inactive) and the GI50 (SNB-19) was > 100 µM (inactive). For the same compound, the GI50 (SF-295) was > 100 µM (inactive), the GI50 (K562) was > 100 µM (inactive) and the GI50 (MOLT-4) was > 100 µM (inactive). The GI50 (SK-OV-3) was > 100 µM (inactive), the GI50 (NCI-H522) was > 100 µM (inactive) and the GI50 (SK-MEL-5) was > 100 µM (inactive). The GI50 (NCI-H226) was > 100 µM (inactive), the GI50 (SK-MEL-2) was > 100 µM (inactive) and the GI50 (NCI/ADR-RES) was > 100 µM (inactive). The GI50 (SN12C) was > 100 µM (inactive), the GI50 (EKVX) was > 100 µM (inactive) and the GI50 (A549) was > 100 µM (inactive). For the same compound, the GI50 (MDA-MB-231) was > 100 µM (inactive), the GI50 (HL-60) was 0.137 µM (active) and the GI50 (OVCAR-5) was > 100 µM (inactive). The GI50 (Hs-578T) was > 100 µM (inactive), the GI50 (HT-29) was > 100 µM (inactive) and the GI50 (786-0) was > 100 µM (inactive). The GI50 (UACC-257) was > 100 µM (inactive), the GI50 (SW-620) was > 100 µM (inactive) and the GI50 (OVCAR-3) was > 100 µM (inactive). For the same compound, the GI50 (DU-145) was > 100 µM (inactive), the GI50 (RXF 393) was > 100 µM (inactive) and the GI50 (CCRF-CEM) was > 100 µM (inactive). The GI50 (SF-268) was > 100 µM (inactive), the GI50 (HCT-116) was > 100 µM (inactive) and the GI50 (HCT-15) was greater than 100 µM. The GI50 (Malme-3M) was > 100 µM (inactive), the GI50 (LOX IMVI) was > 100 µM (inactive) and the GI50 (COLO 205) was > 100 µM (inactive). The GI50 (SK-MEL-28) was > 100 µM (inactive).

`COc1ccc2c(c1)C1=NCCN(CCO)c3ccc([N+](=O)[O-])c(c31)N2` was tested, and the GI50 (TK-10) was 0.63 µM (active), the GI50 (U-251) was 0.506 µM (active) and the GI50 (HOP-62) was 0.462 µM (active). For the same compound, the GI50 (OVCAR-8) was 0.201 µM (active), the GI50 (A498) was 0.798 µM (active) and the GI50 (UACC-62) was 0.422 µM (active). The GI50 (NCI-H23) was 0.652 µM (active), the GI50 (IGROV-1) was 0.519 µM (active) and the GI50 (T47D) was 0.532 µM (active). For the same compound, the GI50 (MDA-MB-435) was 0.493 µM (active), the GI50 (KM12) was 0.505 µM (active) and the GI50 (MCF7) was 0.42 µM (active). The GI50 (PC-3) was 0.34 µM (active), the GI50 (NCI-H460) was 0.274 µM (active) and the GI50 (SNB-75) was 0.578 µM (active). For the same compound, the GI50 (HOP-92) was 0.395 µM (active), the GI50 (UO-31) was 0.265 µM (active) and the GI50 (ACHN) was 0.348 µM (active). The GI50 (SF-539) was 0.415 µM (active), the GI50 (HCC 2998) was 0.574 µM (active) and the GI50 (MDA-N) was 0.431 µM (active). The GI50 (OVCAR-4) was 0.54 µM (active), the GI50 (SR) was 0.0368 µM (active) and the GI50 (CAKI-1) was 0.366 µM (active). The GI50 (SNB-19) was 0.59 µM (active), the GI50 (SF-295) was 0.454 µM (active) and the GI50 (K562) was 0.222 µM (active). The GI50 (MOLT-4) was 0.0755 µM (active), the GI50 (SK-OV-3) was 0.574 µM (active) and the GI50 (NCI-H522) was 0.264 µM (active). The GI50 (SK-MEL-5) was 0.366 µM (active), the GI50 (NCI-H226) was 0.331 µM (active) and the GI50 (SK-MEL-2) was 0.587 µM (active). The GI50 (NCI/ADR-RES) was 1.23 µM (inactive), the GI50 (SN12C) was 0.429 µM (active) and the GI50 (EKVX) was 0.705 µM (active). For the same compound, the GI50 (A549) was 0.427 µM (active), the GI50 (MDA-MB-231) was 0.468 µM (active) and the GI50 (HL-60) was 0.34 µM (active). For the same compound, the GI50 (OVCAR-5) was 0.728 µM (active), the GI50 (Hs-578T) was 0.693 µM (active) and the GI50 (HT-29) was 0.324 µM (active). The GI50 (786-0) was 0.22 µM (active), the GI50 (UACC-257) was 0.581 µM (active) and the GI50 (SW-620) was 0.187 µM (active). The GI50 (OVCAR-3) was 0.785 µM (active), the GI50 (DU-145) was 1.02 µM (active) and the GI50 (RXF 393) was 0.494 µM (active). The GI50 (CCRF-CEM) was 0.18 µM (active), the GI50 (SF-268) was 0.752 µM (active) and the GI50 (HCT-116) was 0.232 µM (active). The GI50 (RPMI-8226) was 0.29 µM (active), the GI50 (HCT-15) was 0.75 µM and the GI50 (Malme-3M) was 0.35 µM (active). For the same compound, the GI50 (M14) was 0.407 µM (active), the GI50 (LOX IMVI) was 0.127 µM (active) and the GI50 (COLO 205) was 0.298 µM (active). For the same compound, the GI50 (SK-MEL-28) was 0.624 µM (active).

With `CC(C)CC(=O)O[C@H]1C(=O)O[C@@H]2C[C@H]3[C@H](C)C(=O)C(O[C@@H]4O[C@H](CO)[C@@H](O)[C@H](O)[C@H]4O)=C[C@]3(C)[C@H]3[C@@H](O)[C@H](O)[C@]4(C(=O)O)OC[C@]32[C@@H]14` [BRUCEOSIDE E] the GI50 (TK-10) was 59.6 µM (inactive), the GI50 (UACC-62) was 60 µM (inactive) and the GI50 (NCI-H23) was 52.4 µM (inactive). The GI50 (T47D) was 94.6 µM (inactive), the GI50 (MDA-MB-435) was 61.2 µM (inactive) and the GI50 (KM12) was 70.1 µM (inactive). The GI50 (PC-3) was 80.9 µM (inactive), the GI50 (SNB-75) was 78 µM (inactive) and the GI50 (UO-31) was 71.4 µM (inactive). The GI50 (MDA-N) was 82 µM (inactive), the GI50 (SK-OV-3) was 52.1 µM (inactive) and the GI50 (OVCAR-5) was 94 µM (inactive). For the same compound, the GI50 (BT-549) was 95.1 µM (inactive) and the GI50 (M14) was 91.2 µM (inactive).
